{"source": "paper PMC9561263", "about": "(2022)", "test_system": "32R-3n (DNA, G4) GCGGTGTGGGAAGAGGGAAGAGGGGGAGGCAG", "assay": "UV melting, 260 nm", "settings": "0.1 M Li+; 0.02 M Tris-HCl pH 7.0; 4 μM DNA, 40 μM ThT; psDNA"}
{"compound": "Cc1ccc2c(c1)sc(-c1ccc(N(C)C)cc1)[n+]2C", "values": [{"measurement": "ΔTm", "value": "~ 19.8 °C"}]}
